Values of other authors in US9034798B2, “Capture compounds, collections thereof and methods for analyzing the proteome and complex compositions” (CAPROTEC BIOANALYTICS GMBH, priority 2003, dated 2015).

Conditions: for deaths: reported before withdrawal from the market; for drug-induced hepatotoxicity: clinical studies; for heart failure: six male patients with poor heart and kidney function

Row | heart failure | SMILES | deaths [deaths] | drug-induced hepatotoxicity
1 |  | COCc1c(C(C)C)nc(C(C)C)c(/C=C/[C@@H](O)C[C@@H](O)CC(=O)O)c1-c1ccc(F)cc1 [Baycol, cerivastatin sodium] | 31 | 
2 | caused heart failure | CN(CCOc1ccc(CC2SC(=O)NC2=O)cc1)c1ccccn1 (stereo not drawn) [Avandia, Rosiglitazone] |  | no evidence of drug-induced hepatotoxicity
3 |  | Cc1c(C)c2c(c(C)c1O)CCC(C)(COc1ccc(CC3SC(=O)NC3=O)cc1)O2 (stereo not drawn) [Rezulin, Troglitazone] | 398 | 
4 | caused heart failure | CCc1ccc(CCOc2ccc(CC3SC(=O)NC3=O)cc2)nc1 (stereo not drawn) [Actos, Pioglitazone] |  | no evidence of drug-induced hepatotoxicity
